Reference: patent US20220395472A1 (Dermavant Sciences GmbH, priority 2021, published 2022)

Test system: adults with plaque psoriasis
Experiment: Long-term open-label extension study (PSOARING 3): Physician Global Assessment (PGA), treatment episodes, treatment success, remittive effect
Type: in vivo, human
Experimental: This extension study consisted of up to 40 weeks of treatment and a 4 week, safety follow up period.
At the completion of the Week 12 visit of the DB, pivotal Phase 3 study, eligibility of the subjects opting to enroll in this extension study was confirmed. Study visits during the treatment period for all subjects occurred every 4 weeks (±3 days). A phone call was performed at Week 2 (Day 15). Unscheduled visits may have occurred, as needed. Subjects who withdrew from this study before Week 40 returned to the study center for an Early Termination visit. The total duration of this extension study participation was 44 weeks. Subjects in this study were treated as follows based on their PGA score from the Week 12 visit in the DB, pivotal Phase 3 study (Study DMVT 505 3001 or Study DMVT 505 3002).
The PGA was used to assess the primary efficacy endpoint in this study. The PGA is a clinical tool for assessing the current state/severity of a subject's psoriasis at a given time point. It is a static, 5 point, morphological assessment of overall disease severity, as determined by the Investigator, using the clinical characteristics of erythema, scaling, and plaque thickness/elevation as guidelines; higher PGA scores represent more severe disease (0=clear, 1=almost clear, 2=mild, 3=moderate, and 4=severe). The BSA affected was not considered in scoring of the PGA. Variations of the PGA are frequently used in clinical studies because it is a simple assessment, similar to those used in clinical practice. The PGA was performed first, prior to the % BSA, PASI, and LTS assessments.
Time to event parameters, such as the time from treatment success to subsequent worsening (PGA≥2) or duration of treatment episode, were summarized by the Kaplan Meier product limit method using OC.

[1] = Baseline PGA = 0, Tapinarof (Pivotal) group
[2] = Baseline PGA = 0, Vehicle (Pivotal) group

CC(C)c1c(O)cc(/C=C/c2ccccc2)cc1O [Tapinarof, 3,5-Dihydroxy-4-isopropyl-trans-stilbene]
Average Duration of Episodes, Mean (SD) (Baseline PGA = 0, Overall): 91.4 (66.93) days
Average Duration of Episodes, Median (Baseline PGA = 0, Overall): 63.0 days
Average Duration of Treatment Success, Mean (SD) (Baseline PGA = 0, Overall): 124.2 (87.66) days
Average Duration of Treatment Success, Median (Baseline PGA = 0, Overall): 98.0 days
Duration of 1st Episode, Mean (SD) (Baseline PGA = 0, Overall): 92.9 (67.74) days
Duration of 1st Episode, Median (Baseline PGA = 0, Overall): 65.0 days
Duration of 1st Success, Mean (SD) (Baseline PGA = 0, Overall): 125.1 (91.87) days
Duration of 1st Success, Median (Baseline PGA = 0, Overall): 112.0 days
Duration of 2nd Episode, Mean (SD) (Baseline PGA = 0, Overall): 44.1 (25.97) days
Duration of 2nd Episode, Median (Baseline PGA = 0, Overall): 42.0 days
Duration of 2nd Success, Mean (SD) (Baseline PGA = 0, Overall): 87.6 (67.05) days
Duration of 2nd Success, Median (Baseline PGA = 0, Overall): 71.0 days
Duration of 3rd Episode, Mean (SD) (Baseline PGA = 0, Overall): 61.0 (NE) days
Duration of 3rd Episode, Median (Baseline PGA = 0, Overall): 61.0 days
Duration of 3rd Success, Mean (SD) (Baseline PGA = 0, Overall): 33.0 (29.76) days
Duration of 3rd Success, Median (Baseline PGA = 0, Overall): 28.0 days
Duration of Last Episode, Mean (SD) (Baseline PGA = 0, Overall): 89.9 (68.95) days
Duration of Last Episode, Median (Baseline PGA = 0, Overall): 63.0 days
Duration of Last Success, Mean (SD) (Baseline PGA = 0, Overall): 121.6 (98.44) days
Duration of Last Success, Median (Baseline PGA = 0, Overall): 112.0 days
Total Duration of Treatment Episodes, Mean (SD) (Baseline PGA = 0, Overall): 109.2 (61.94) days
Total Duration of Treatment Episodes, Median (Baseline PGA = 0, Overall): 94.0 days
Total Duration of Treatment Success, Mean (SD) (Baseline PGA = 0, Overall): 167.9 (84.48) days
Total Duration of Treatment Success, Median (Baseline PGA = 0, Overall): 170.0 days
Average Duration of Episodes, Mean (SD) [1]: 90.2 (65.67) days
Average Duration of Episodes, Median [1]: 63.0 days
Average Duration of Treatment Success, Mean (SD) [1]: 119.7 (82.74) days
Average Duration of Treatment Success, Median [1]: 98.0 days
Duration of 1st Episode, Mean (SD) [1]: 91.7 (66.66) days
Duration of 1st Episode, Median [1]: 65.0 days
Duration of 1st Success, Mean (SD) [1]: 120.3 (87.83) days
Duration of 1st Success, Median [1]: 112.0 days
Duration of 2nd Episode, Mean (SD) [1]: 44.9 (26.43) days
Duration of 2nd Episode, Median [1]: 43.0 days
Duration of 2nd Success, Mean (SD) [1]: 89.1 (67.03) days
Duration of 2nd Success, Median [1]: 71.0 days
Duration of 3rd Episode, Mean (SD) [1]: 61.0 (NE) days
Duration of 3rd Episode, Median [1]: 61.0 days
Duration of 3rd Success, Mean (SD) [1]: 36.2 (29.31) days
Duration of 3rd Success, Median [1]: 28.5 days
Duration of Last Episode, Mean (SD) [1]: 88.8 (67.68) days
Duration of Last Episode, Median [1]: 63.0 days
Duration of Last Success, Mean (SD) [1]: 118.0 (93.58) days
Duration of Last Success, Median [1]: 112.0 days
Total Duration of Treatment Episodes, Median [1]: 94.0 days
Total Duration of Treatment Success, Mean (SD) [1]: 164.3 (82.24) days
Total Duration of Treatment Success, Median [1]: 168.0 days
Average Duration of Episodes, Mean (SD) [2]: 122.8 (124.80) days
Average Duration of Episodes, Median [2]: 122.8 days
Average Duration of Treatment Success, Mean (SD) [2]: 191.0 (136.91) days
Average Duration of Treatment Success, Median [2]: 280.0 days
Duration of 1st Episode, Mean (SD) [2]: 126.0 (120.21) days
Duration of 1st Episode, Median [2]: 126.0 days
Duration of 1st Success, Mean (SD) [2]: 195.2 (130.61) days
Duration of 1st Success, Median [2]: 280.0 days
Duration of 2nd Episode, Mean (SD) [2]: 28.0 (NE) days
Duration of 2nd Episode, Median [2]: 28.0 days
Duration of 2nd Success, Mean (SD) [2]: 63.5 (88.39) days
Duration of 2nd Success, Median [2]: 63.5 days
Duration of 3rd Success, Mean (SD) [2]: 1.0 (NE) days
Duration of 3rd Success, Median [2]: 1.0 days
Duration of Last Episode, Mean (SD) [2]: 119.5 (129.40) days
Duration of Last Episode, Median [2]: 119.5 days
Duration of Last Success, Mean (SD) [2]: 174.4 (158.72) days
Duration of Last Success, Median [2]: 280.0 days
Total Duration of Treatment Episodes, Mean (SD) [2]: 140.0 (100.41) days
Total Duration of Treatment Episodes, Median [2]: 140.0 days
Total Duration of Treatment Success, Mean (SD) [2]: 220.8 (109.21) days
Total Duration of Treatment Success, Median [2]: 280.0 days
Average Duration of Episodes, Mean (SD) (Baseline PGA = 1, Overall): 140.1 (95.01) days
Average Duration of Episodes, Median (Baseline PGA = 1, Overall): 112.0 days
Average Duration of Treatment Success, Median (Baseline PGA = 1, Overall): 98.0 days
Duration of 1st Episode, Mean (SD) (Baseline PGA = 1, Overall): 133.5 (100.06) days
Duration of 1st Episode, Median (Baseline PGA = 1, Overall): 87.0 days
Duration of 1st Success, Mean (SD) (Baseline PGA = 1, Overall): 107.2 (76.62) days
Duration of 1st Success, Median (Baseline PGA = 1, Overall): 90.0 days
Duration of 2nd Episode, Mean (SD) (Baseline PGA = 1, Overall): 98.4 (61.51) days
Duration of 2nd Episode, Median (Baseline PGA = 1, Overall): 85.0 days
Duration of 2nd Success, Mean (SD) (Baseline PGA = 1, Overall): 75.4 (59.40) days
Duration of 2nd Success, Median (Baseline PGA = 1, Overall): 56.0 days
Duration of 3rd Episode, Mean (SD) (Baseline PGA = 1, Overall): 54.9 (56.83) days
Duration of 3rd Episode, Median (Baseline PGA = 1, Overall): 28.0 days
